Assay results as given in PubChem BioAssay AID1745844 (Carcinogenic Potency Database (CPDB), 2022).
Active and inactive are the calls of the source. The rule behind the calls is not given here.

Test system: rodent lifetime carcinogenesis bioassay, tumor incidence TD50
Assay: chronic cancer bioassays in animals – CPDB, compiled studies (AID 1745844)

## COc1cc(-c2ccc(N)c(OC)c2)ccc1N
mouse, strain BALB/cStCrlfC3Hf/Nctr, females, in drinking water, site: Harderian gland, lesion: adenoma, dosed 78 weeks, study length 78 weeks
  carcinogen call: negative (inactive)
mouse, strain BALB/cStCrlfC3Hf/Nctr, females, in drinking water, site: Harderian gland, lesion: adenoma, dosed 112 weeks, study length 112 weeks
  carcinogen call: negative (inactive)
mouse, strain BALB/cStCrlfC3Hf/Nctr, females, in drinking water, site: Harderian gland, lesion: carcinoma, dosed 78 weeks, study length 78 weeks
  carcinogen call: negative (inactive)
mouse, strain BALB/cStCrlfC3Hf/Nctr, males, in drinking water, site: Harderian gland, lesion: adenoma, dosed 78 weeks, study length 78 weeks
  TD50: 3560 mg/kg/day (inactive)
mouse, strain BALB/cStCrlfC3Hf/Nctr, males, in drinking water, site: Harderian gland, lesion: adenoma, dosed 112 weeks, study length 112 weeks
  carcinogen call: negative (inactive)
mouse, strain ICR/Jcl, males, in feed, site: liver, lesion: hepatoma, dosed 65 weeks, study length 65 weeks
  TD50: 73.8 mg/kg/day
rat, strain Fischer 344, females, in drinking water, site: Zymbal's gland, lesion: adenoma + carcinoma + carcinoma, bilateral, dosed 91 weeks, study length 93 weeks
  TD50: 6.74 mg/kg/day
rat, strain Fischer 344, females, in drinking water, site: Zymbal's gland, lesion: adenoma, dosed 91 weeks, study length 93 weeks
  TD50: 27.5 mg/kg/day
rat, strain Fischer 344, females, in drinking water, site: Zymbal's gland, lesion: carcinoma + carcinoma, bilateral, dosed 91 weeks, study length 93 weeks
  TD50: 8.41 mg/kg/day
rat, strain Fischer 344, females, in drinking water, site: all sites, lesion: mononuclear-cell leukemia, dosed 91 weeks, study length 93 weeks
  TD50: 6.71 mg/kg/day
rat, strain Fischer 344, females, in drinking water, site: any site (literature study), lesion: several types, types named in the paper, dosed 91 weeks, study length 93 weeks
  TD50: 1.09 mg/kg/day
rat, strain Fischer 344, females, in drinking water, site: cervix uteri + uterus, lesion: carcinoma + papillary adenoma + adenoma, dosed 91 weeks, study length 93 weeks
  TD50: 14 mg/kg/day
rat, strain Fischer 344, females, in drinking water, site: cervix uteri + uterus, lesion: papillary adenoma + adenoma, dosed 91 weeks, study length 93 weeks
  TD50: 15.8 mg/kg/day
rat, strain Fischer 344, females, in drinking water, site: clitoral gland + cervix uteri + colon, descending + liver + mammary gland + palate + pharynx + rectum + skin + tongue + uterus + Zymbal's glan, lesion: adenoma + adenoma, bilateral + carcinoma + carcinoma, bilateral + papillary adenoma + adenocarcinoma + adenomatous polyp + hepatocellu, dosed 91 weeks, study length 93 weeks
  TD50: 1.19 mg/kg/day
rat, strain Fischer 344, females, in drinking water, site: clitoral gland, lesion: adenoma + adenoma, bilateral + carcinoma + carcinoma, bilateral, dosed 91 weeks, study length 93 weeks
  TD50: 1.6 mg/kg/day
rat, strain Fischer 344, females, in drinking water, site: clitoral gland, lesion: adenoma + adenoma, bilateral, dosed 91 weeks, study length 93 weeks
  TD50: 3.84 mg/kg/day
rat, strain Fischer 344, females, in drinking water, site: clitoral gland, lesion: carcinoma + carcinoma, bilateral, dosed 91 weeks, study length 93 weeks
  TD50: 2.62 mg/kg/day
rat, strain Fischer 344, females, in drinking water, site: colon, descending + rectum, lesion: adenocarcinoma + adenomatous polyp, dosed 91 weeks, study length 93 weeks
  TD50: 44.3 mg/kg/day
rat, strain Fischer 344, females, in drinking water, site: liver, lesion: hepatocellular adenoma + hepatocellular carcinoma + neoplastic nodule, dosed 91 weeks, study length 93 weeks
  TD50: 33.3 mg/kg/day
rat, strain Fischer 344, females, in drinking water, site: liver, lesion: hepatocellular carcinoma + neoplastic nodule, dosed 91 weeks, study length 93 weeks
  TD50: 33.3 mg/kg/day
rat, strain Fischer 344, females, in drinking water, site: mammary gland, lesion: adenocarcinoma + adenoma + fibroadenoma, dosed 91 weeks, study length 93 weeks
  TD50: 3.24 mg/kg/day
rat, strain Fischer 344, females, in drinking water, site: mammary gland, lesion: adenocarcinoma, dosed 91 weeks, study length 93 weeks
  TD50: 7.7 mg/kg/day
rat, strain Fischer 344, females, in drinking water, site: mammary gland, lesion: adenoma + fibroadenoma, dosed 91 weeks, study length 93 weeks
  TD50: 6.22 mg/kg/day
rat, strain Fischer 344, females, in drinking water, site: mammary gland, lesion: fibroadenoma, dosed 91 weeks, study length 93 weeks
  TD50: 7.05 mg/kg/day
rat, strain Fischer 344, females, in drinking water, site: palate + pharynx + tongue, lesion: squamous-cell carcinoma + squamous-cell papilloma, dosed 91 weeks, study length 93 weeks
  TD50: 13.8 mg/kg/day
rat, strain Fischer 344, females, in drinking water, site: palate + tongue, lesion: squamous-cell carcinoma, dosed 91 weeks, study length 93 weeks
  TD50: 113 mg/kg/day
rat, strain Fischer 344, females, in drinking water, site: palate + tongue, lesion: squamous-cell papilloma, dosed 91 weeks, study length 93 weeks
  TD50: 16.6 mg/kg/day
rat, strain Fischer 344, females, in drinking water, site: palate, lesion: squamous-cell carcinoma + squamous-cell papilloma, dosed 91 weeks, study length 93 weeks
  TD50: 45.3 mg/kg/day
rat, strain Fischer 344, females, in drinking water, site: palate, lesion: squamous-cell papilloma, dosed 91 weeks, study length 93 weeks
  TD50: 47.8 mg/kg/day
rat, strain Fischer 344, females, in drinking water, site: pituitary gland, lesion: adenoma + pars distalis adenoma + pars distalis carcinoma, dosed 91 weeks, study length 93 weeks
  TD50: 9.4 mg/kg/day
rat, strain Fischer 344, females, in drinking water, site: pituitary gland, lesion: adenoma + pars distalis adenoma, dosed 91 weeks, study length 93 weeks
  TD50: 8.84 mg/kg/day
rat, strain Fischer 344, females, in drinking water, site: skin, lesion: basal-cell adenoma + basal-cell carcinoma, dosed 91 weeks, study length 93 weeks
  TD50: 10.2 mg/kg/day
rat, strain Fischer 344, females, in drinking water, site: skin, lesion: basal-cell adenoma, dosed 91 weeks, study length 93 weeks
  TD50: 12.3 mg/kg/day
rat, strain Fischer 344, females, in drinking water, site: tongue, lesion: squamous-cell carcinoma + squamous-cell papilloma, dosed 91 weeks, study length 93 weeks
  TD50: 19.9 mg/kg/day
rat, strain Fischer 344, females, in drinking water, site: uterus, lesion: endometrial stromal polyp, dosed 91 weeks, study length 93 weeks
  TD50: 11.6 mg/kg/day
rat, strain Fischer 344, males, in drinking water, site: Zymbal's gland, lesion: adenoma + adenoma, bilateral + carcinoma + carcinoma, bilateral, dosed 88 weeks, study length 92 weeks
  TD50: 3.02 mg/kg/day
rat, strain Fischer 344, males, in drinking water, site: Zymbal's gland, lesion: adenoma + adenoma, bilateral, dosed 88 weeks, study length 92 weeks
  TD50: 5.84 mg/kg/day
rat, strain Fischer 344, males, in drinking water, site: Zymbal's gland, lesion: carcinoma + carcinoma, bilateral, dosed 88 weeks, study length 92 weeks
  TD50: 6.71 mg/kg/day
rat, strain Fischer 344, males, in drinking water, site: adrenal medulla, lesion: pheochromocytoma benign, bilateral + pheochromocytoma, benign, dosed 88 weeks, study length 92 weeks
  TD50: 2.06 mg/kg/day
rat, strain Fischer 344, males, in drinking water, site: adrenal medulla, lesion: pheochromocytoma benign, bilateral + pheochromocytoma, malignant + pheochromocytoma, benign, dosed 88 weeks, study length 92 weeks
  TD50: 2.11 mg/kg/day
rat, strain Fischer 344, males, in drinking water, site: all sites + colon, ascending + cecum + colon + colon, descending + duodenum + ileum + jejunum + liver + palate + pharynx + preputial gland + rec, lesion: mesothelioma, benign + mesothelioma, malignant + adenomatous polyp + mucinous cystadenocarcinoma + adenocarcinoma + hepatocellular, dosed 88 weeks, study length 92 weeks
  TD50: 0.677 mg/kg/day
rat, strain Fischer 344, males, in drinking water, site: all sites, lesion: mesothelioma, benign + mesothelioma, malignant, dosed 88 weeks, study length 92 weeks
  TD50: 27.4 mg/kg/day
rat, strain Fischer 344, males, in drinking water, site: all sites, lesion: mononuclear-cell leukemia, dosed 88 weeks, study length 92 weeks
  TD50: 2.5 mg/kg/day
rat, strain Fischer 344, males, in drinking water, site: any site (literature study), lesion: several types, types named in the paper, dosed 88 weeks, study length 92 weeks
  TD50: 0.565 mg/kg/day
rat, strain Fischer 344, males, in drinking water, site: brain + cerebellum, cerebrum + cerebrum + cerebellum, lesion: astrocytoma, malignant, dosed 88 weeks, study length 92 weeks
  TD50: 10.9 mg/kg/day
rat, strain Fischer 344, males, in drinking water, site: cecum + colon + colon, descending + rectum, lesion: mucinous cystadenocarcinoma + adenocarcinoma, dosed 88 weeks, study length 92 weeks
  TD50: 38 mg/kg/day
rat, strain Fischer 344, males, in drinking water, site: colon, ascending + cecum + colon + colon, descending + rectum, lesion: adenomatous polyp + mucinous cystadenocarcinoma + adenocarcinoma, dosed 88 weeks, study length 92 weeks
  TD50: 9.91 mg/kg/day
rat, strain Fischer 344, males, in drinking water, site: colon, ascending + colon, descending + rectum, lesion: adenomatous polyp, dosed 88 weeks, study length 92 weeks
  TD50: 13.6 mg/kg/day
rat, strain Fischer 344, males, in drinking water, site: duodenum + ileum + jejunum, lesion: adenocarcinoma + mucinous cystadenocarcinoma, dosed 88 weeks, study length 92 weeks
  TD50: 8.44 mg/kg/day
rat, strain Fischer 344, males, in drinking water, site: liver, lesion: hepatocellular adenoma + hepatocellular carcinoma + neoplastic nodule, dosed 88 weeks, study length 92 weeks
  TD50: 7.8 mg/kg/day
rat, strain Fischer 344, males, in drinking water, site: liver, lesion: hepatocellular carcinoma + neoplastic nodule, dosed 88 weeks, study length 92 weeks
  TD50: 7.8 mg/kg/day
rat, strain Fischer 344, males, in drinking water, site: liver, lesion: neoplastic nodule, dosed 88 weeks, study length 92 weeks
  TD50: 12.4 mg/kg/day
rat, strain Fischer 344, males, in drinking water, site: palate + pharynx + tongue, lesion: squamous-cell carcinoma + squamous-cell papilloma, dosed 88 weeks, study length 92 weeks
  TD50: 4.22 mg/kg/day
rat, strain Fischer 344, males, in drinking water, site: palate, lesion: squamous-cell carcinoma + squamous-cell papilloma, dosed 88 weeks, study length 92 weeks
  TD50: 8.21 mg/kg/day
rat, strain Fischer 344, males, in drinking water, site: palate, lesion: squamous-cell papilloma, dosed 88 weeks, study length 92 weeks
  TD50: 8.35 mg/kg/day
rat, strain Fischer 344, males, in drinking water, site: pharynx + tongue, lesion: squamous-cell papilloma, dosed 88 weeks, study length 92 weeks
  TD50: 4.49 mg/kg/day
rat, strain Fischer 344, males, in drinking water, site: preputial gland, lesion: adenoma + adenoma, bilateral + carcinoma + carcinoma, bilateral, dosed 88 weeks, study length 92 weeks
  TD50: 1.78 mg/kg/day
rat, strain Fischer 344, males, in drinking water, site: preputial gland, lesion: adenoma + adenoma, bilateral, dosed 88 weeks, study length 92 weeks
  TD50: 3.28 mg/kg/day
rat, strain Fischer 344, males, in drinking water, site: preputial gland, lesion: carcinoma + carcinoma, bilateral, dosed 88 weeks, study length 92 weeks
  TD50: 4.65 mg/kg/day
rat, strain Fischer 344, males, in drinking water, site: skin, lesion: basal-cell adenoma + basal-cell carcinoma + sebaceous gland carcinoma + sebaceous adenoma, dosed 88 weeks, study length 92 weeks
  TD50: 0.767 mg/kg/day
rat, strain Fischer 344, males, in drinking water, site: skin, lesion: basal-cell adenoma + basal-cell carcinoma, dosed 88 weeks, study length 92 weeks
  TD50: 0.77 mg/kg/day
rat, strain Fischer 344, males, in drinking water, site: skin, lesion: basal-cell adenoma + sebaceous adenoma, dosed 88 weeks, study length 92 weeks
  TD50: 0.785 mg/kg/day
rat, strain Fischer 344, males, in drinking water, site: skin, lesion: basal-cell adenoma, dosed 88 weeks, study length 92 weeks
  TD50: 0.789 mg/kg/day
rat, strain Fischer 344, males, in drinking water, site: skin, lesion: basal-cell carcinoma + sebaceous gland carcinoma, dosed 88 weeks, study length 92 weeks
  TD50: 6.5 mg/kg/day
rat, strain Fischer 344, males, in drinking water, site: skin, lesion: basal-cell carcinoma, dosed 88 weeks, study length 92 weeks
  TD50: 6.55 mg/kg/day
rat, strain Fischer 344, males, in drinking water, site: skin, lesion: keratoacanthoma, dosed 88 weeks, study length 92 weeks
  TD50: 9.13 mg/kg/day
rat, strain Fischer 344, males, in drinking water, site: skin, lesion: sebaceous gland carcinoma + sebaceous adenoma, dosed 88 weeks, study length 92 weeks
  TD50: 24.6 mg/kg/day
rat, strain Fischer 344, males, in drinking water, site: skin, lesion: squamous-cell carcinoma + squamous-cell papilloma, dosed 88 weeks, study length 92 weeks
  TD50: 2.01 mg/kg/day
rat, strain Fischer 344, males, in drinking water, site: skin, lesion: squamous-cell carcinoma, dosed 88 weeks, study length 92 weeks
  TD50: 2.35 mg/kg/day
rat, strain Fischer 344, males, in drinking water, site: skin, lesion: squamous-cell papilloma, dosed 88 weeks, study length 92 weeks
  TD50: 6.6 mg/kg/day
rat, strain Fischer 344, males, in drinking water, site: subcutaneous tissue, lesion: fibroma + neurofibroma, dosed 88 weeks, study length 92 weeks
  TD50: 5.19 mg/kg/day
rat, strain Fischer 344, males, in drinking water, site: subcutaneous tissue, lesion: fibroma, dosed 88 weeks, study length 92 weeks
  TD50: 13.9 mg/kg/day
rat, strain Fischer 344, males, in drinking water, site: subcutaneous tissue, lesion: fibrosarcoma + fibroma + neurofibroma + sarcoma, dosed 88 weeks, study length 92 weeks
  TD50: 6.49 mg/kg/day
rat, strain Fischer 344, males, in drinking water, site: subcutaneous tissue, lesion: fibrosarcoma + fibroma, dosed 88 weeks, study length 92 weeks
  TD50: 13.6 mg/kg/day
rat, strain Fischer 344, males, in drinking water, site: testis, lesion: interstitial-cell adenoma, bilateral + interstitial-cell adenoma, dosed 88 weeks, study length 92 weeks
  TD50: 0.612 mg/kg/day
rat, strain Fischer 344, males, in drinking water, site: thyroid gland, lesion: c-cell adenoma + c-cell carcinoma, dosed 88 weeks, study length 92 weeks
  TD50: 4.7 mg/kg/day
rat, strain Fischer 344, males, in drinking water, site: thyroid gland, lesion: c-cell adenoma, dosed 88 weeks, study length 92 weeks
  TD50: 6.92 mg/kg/day
rat, strain Fischer 344, males, in drinking water, site: tongue, lesion: squamous-cell carcinoma + squamous-cell papilloma, dosed 88 weeks, study length 92 weeks
  TD50: 8.25 mg/kg/day
rat, strain Fischer 344, males, in drinking water, site: tongue, lesion: squamous-cell papilloma, dosed 88 weeks, study length 92 weeks
  TD50: 9.16 mg/kg/day
